Results taken from patent publication US20030211941A1, “Methods for identifying signalling molecules” (priority 2002, published 2003).
pEC50: −log10 of the molar value. Non-standard residues stand in square brackets, D forms with d. Hyp = O=C(O)[C@@H]1C[C@@H](O)CN1

What was measured:
[1] = test system: tobacco proteinase inhibitor protein; experiment: Proteinase inhibitor inducing assay (tobacco leaves; supplied to young tobacco plants through cut stems); type: in vivo; details: for Induction of tobacco proteinase inhibitor protein (in words): tobacco plants; for Concentrations for 1/2 maximal activity in Proteinase Inhibitor Inducing Assays (Tobacco Leaves): young tobacco plants, supplied through cut stems
Description: The purified polypeptides were sequenced and named tobacco systemin I (peak I activity) (SEQ ID NO: 1) and tobacco systemin II (peak II activity) (SEQ ID NO: 2). Both are polypeptides of 18 amino acids and both are glycosylated. Using mild acid hydrolysis, the carbohydrates were removed, and the masses of both tobacco systemin I (SEQ ID NO: 1) and tobacco systemin II (SEQ ID NO: 2) were analyzed before and after acid hydrolysis using a MALDI-MS. The amino acid sequence of tobacco systemin I is NH2-RGANLPXXSXASSXXSKE-COO. (SEQ ID NO:1). The amino acid sequence of tobacco systemin II is NH2-NRKPLSXXSXKPADGQRP-COO (SEQ ID NO:2). The one letter abbreviation “X” represents hydroxyproline. The masses after acid hydrolysis exactly matched the masses obtained by sequence analysis. […] The potency of the tobacco systemins was similar to that found for tomato systemin (disclosed in U.S. Pat. No. 5,378,819) in its alkalinization response in tomato cell suspension cultures and in inducing proteinase inhibitors in leaves of excised tomato plants (Table 1).

[2] = test system: tobacco suspension cell cultures; experiment: Alkalinization assay (tobacco cell suspension cultures); type: cell-based, N. tabacum; details: for pEC50: 2 ml tobacco suspension cells, read-out: Concentrations for 1/2 maximal activity in Alkalinization Assays (Tobacco Cell Suspension Cultures); for Alkalinization of tobacco suspension cell cultures (in words): tobacco suspension cells
Description: Column fractions were assayed using suspension-cultured tobacco cells as follows. An aliquot of cells (usually 1 to 2 ml) were placed in the wells of culture plates, then aliquots from each column fraction (1 to 10 μL) were placed in each well of the culture plates. The cells in the plates were agitated by a circular motion of the rotary shaker on which they sat. The pH was then monitored over time and the change in pH at various times was plotted versus fraction number.
The two active peaks were solubilized in 1 ml 0.1% TFA each and injected into a narrow bore reversed-phase C18 column (Vydac, Column 218TP52, 2.1 by 250 mm, 5 μm beads, 300 angstrom pores). Solvent A consisted of 0.1% TFA in water, and solvent B was 0.05% TFA in methanol. Samples were injected in solvent A, and after 2 minutes, a 90 minute gradient from 0% solvent B to 30% solvent B was applied. The flow rate was 0.25 ml/min and the fractions (0.25 ml) were monitored at 214 nm and 2 μl were assayed for their alkalinization activity in tobacco cell cultures. The elution and alkalinization profiles for peak I activity are shown in FIG. 3A and FIG. 3B, respectively. The elution and alkalinization profile for peak II activity are shown in FIG. 4A and FIG. 4B, respectively.
The cells can be maintained in 125 mL Ehrlenmeyer flasks on an orbital shaker (160 rpm) under constant light. Three milliliters of cells are subcultured every seven days into 45 mL of sterile media (unbuffered, pH 5.5 adjusted with 0.1 M KOH) containing 3% sucrose, 4.3 g/L Murashige and Skoog salt mixture, 5 mg/L 1-napthylacetic acid, 2 mg/L 6-benzylaminopurine, 110 mg/L Nitsch and Nitsch vitamin powder, 1 mg/L thiamine, 100 mg/L myo-inositol and 1 mM EDTA. Cells can be used for alkalinization assays from 4 to 8 days after subculturing.

[3] = test system: MAP kinase protein; experiment: MAP kinase assay in tobacco leaf extracts; type: biochemical
Source text: The ability of tobacco systemin I (SEQ ID NO: 1), tobacco systemin II (SEQ ID NO: 2) and the 5 kDa polypeptide, described in Example 2 herein, to stimulate the phosphorylation of a MAP kinase protein in tobacco leaf extracts was investigated. The MAP kinase assay utilized was essentially as described in Stratmann, J. W. and Ryan, C. A., Proc. Nat'l. Acad. Sci. U.S.A. 94:11085-11089 (1997), which publication is incorporated herein by reference.

Induction of tobacco proteinase inhibitor protein (in words) [1] | Concentrations for 1/2 maximal activity in Proteinase Inhibitor Inducing Assays (Tobacco Leaves) [1] | pEC50 [2] | MAP kinase stimulating activity (in words) [3] | Substance | Alkalinization of tobacco suspension cell cultures (in words) [2]
active at low picomole levels | ˜200 fmol/plant | ~9.60 | possess MAP kinase stimulating activity | 18 amino acid glycosylated polypeptide from tobacco, NH2-NRKPLSXXSXKPADGQRP-COO (X = hydroxyproline), 6 pentose units (H-NRKPLS[Hyp][Hyp]S[Hyp]KPADGQRP-OH; also: 6 pentose units glycosylation, places not given here) [Tob Sys II, tobacco systemin II] | active at low picomole levels
active at low picomole levels | ˜200 fmol/plant | ~9.60 |  | 18 amino acid glycosylated polypeptide from tobacco, NH2-RGANLPXXSXASSXXSKE-COO (X = hydroxyproline), 9 pentose units (H-RGANLP[Hyp][Hyp]S[Hyp]ASS[Hyp][Hyp]SKE-OH; also: 9 pentose units glycosylation, places not given here) [Tob Sys I, tobacco systemin I] | active at low picomole levels
 |  |  |  | tomato systemin (AVQSKPPSKRDPPKMQTD; Systemin; UniProt P27058 179-196, looked up) [tomato systemin disclosed in U.S. Pat. No. 5,378,819, reference compound] | does not cause alkalinization
